From patent US20230293573A1 (priority 2020, published 2023)
Values after ≈ are worked out from the molar mass of the structure shown. Like-named read-outs stand apart in the source and are kept apart here.

Columns and labels:
[1] = test system: SARS-CoV-2; test: Anti-SARS-CoV-2 efficacy in Vero cells (Jeon et al. 2020); assay type: cell-based; details: Severe acute respiratory syndrome coronavirus 2, Vero; for IC90: read-out: IC90 against SARS-CoV-2
[2] = test system: SARS-CoV-2; test: microbe, parasite or virus in culture; assay type: cell-based; details: Severe acute respiratory syndrome coronavirus 2; Gassen et al. (2020); read-out: IC50 against SARS-CoV-2
[3] = test system: prostate cancer cell (PC-3); test: Inhibitory efficacy against prostate cancer cell PC-3; assay type: cell-based; details: estimated from dose-efficacy curve, FIG. 7
[4] = test system: SARS-CoV-2; details: Gassen et al. (2020); read-out: IC50 against SARS-CoV-2; cited from earlier work
[5] = cited from earlier work
[6] = phosphate buffer, depending on temperature of measurement; cited from earlier work
[7] = cited from earlier work; remark: listed apart in the source
[8] = molecular target: T1, TMEM16F/Anoctamin6 (Homo sapiens, UniProt Q4KMQ2); details: Spike-expressing cells; cited from earlier work
T1 sequence (Q4KMQ2 1-910): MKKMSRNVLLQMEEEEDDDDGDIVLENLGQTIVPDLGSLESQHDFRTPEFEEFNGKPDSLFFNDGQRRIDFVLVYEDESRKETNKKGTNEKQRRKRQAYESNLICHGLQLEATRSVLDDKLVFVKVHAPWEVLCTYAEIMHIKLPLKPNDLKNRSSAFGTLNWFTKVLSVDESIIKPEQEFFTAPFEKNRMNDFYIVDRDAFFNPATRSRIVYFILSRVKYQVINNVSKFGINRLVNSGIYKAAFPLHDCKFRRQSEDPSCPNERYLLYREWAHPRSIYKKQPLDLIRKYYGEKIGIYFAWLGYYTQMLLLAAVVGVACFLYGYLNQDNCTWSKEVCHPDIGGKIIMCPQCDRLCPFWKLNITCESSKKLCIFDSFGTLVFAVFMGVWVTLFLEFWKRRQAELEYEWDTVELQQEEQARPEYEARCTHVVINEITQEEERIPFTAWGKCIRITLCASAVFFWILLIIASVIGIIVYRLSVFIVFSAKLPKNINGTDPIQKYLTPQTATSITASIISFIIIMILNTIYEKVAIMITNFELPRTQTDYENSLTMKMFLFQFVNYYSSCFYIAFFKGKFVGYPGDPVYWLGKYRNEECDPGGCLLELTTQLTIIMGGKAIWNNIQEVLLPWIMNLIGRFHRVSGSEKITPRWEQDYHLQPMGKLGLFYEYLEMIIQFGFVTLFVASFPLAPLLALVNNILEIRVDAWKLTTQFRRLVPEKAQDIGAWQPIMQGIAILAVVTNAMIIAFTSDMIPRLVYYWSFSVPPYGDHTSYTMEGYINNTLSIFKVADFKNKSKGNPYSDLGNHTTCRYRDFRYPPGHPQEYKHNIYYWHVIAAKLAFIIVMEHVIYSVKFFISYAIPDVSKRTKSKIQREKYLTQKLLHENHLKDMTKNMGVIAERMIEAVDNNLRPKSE

[9] = rats, single oral dose 5 mg/kg, dissolved in DMSO/cremophor EL/water 3/15/82; cited from earlier work
[10] = Solubilization and dispersion of niclosamide by OHPP; details: 2.5 mg/mL niclosamide in phosphate buffer

Question: For `O=C(Nc1ccc([N+](=O)[O-])cc1Cl)c1cc(Cl)ccc1O` [niclosamide, 2′,5-Dichloro-4′-nitrosalicylanilide], which IC90 ([1]; read from FIG. 2 (Jeon et al. 2020)) is on record?
Answer: The IC90 was roughly 700 nM.

Question: What about the IC50 ([1]; read-out: IC50 against SARS-CoV-2) of the same compound?
Answer: The IC50 was 0.092 µg/mL (≈ 0.281 µM).

Question: What about the IC90 [1] of the same compound?
Answer: Its IC90 is roughly 0.229 µg/mL.

Question: What about the IC50 [2] of the same compound?
Answer: The IC50 was 0.056 µg/mL (≈ 0.171 µM).

Question: And the IC50 [3]?
Answer: The IC50 was 5.93 µg/mL (≈ 18.1 µM).

Question: And the IC50 [4]?
Answer: Its IC50 is 170 nM.

Question: What about the maximal plasma concentration ([5]; 500 mg TID) of the same compound?
Answer: The maximal plasma concentration was 35.7 to 182 ng/mL.

Question: What about the side effects ([5]; 500 or 1000 mg TID oral, 4 weeks) of the same compound?
Answer: The side effects was “mostly associated with the GI tract”.

Question: What about the “maximal plasma concentration, highest level reached” value ([5]; 500 or 1000 mg TID, 4 weeks) of the same compound?
Answer: Its value is 182 ng/mL.

Question: And the solubility [6]?
Answer: Its solubility is 0.3 to 1.14 µg/mL.

Question: What about the BCS solubility [7] of the same compound?
Answer: Its BCS solubility is “low solubility”.

Question: What about the solubility definition ([7]; delMoral-Sanchez et al., 2019) of the same compound?
Answer: The solubility definition was “practically insoluble”.

Question: What about the “effect on calcium oscillations and membrane conductances through TMEM16F” value [8] of the same compound?
Answer: Its value is “markedly blunted calcium oscillations and membrane conductances”.

Question: And the “highest plasma concentration (Cmax)” value [9]?
Answer: The value was 354 ± 152 ng/mL.

Question: What about the appearance of dispersion [10] of the same compound?
Answer: Its appearance of dispersion is “did not dissolve and showed heavy clouds and precipitates”.
